This passage reports Km results from article PMC4249961, “Characterization of an Acidic Chitinase from Seeds of Black Soybean (Glycine max (L) Merr Tainan No. 3)” (PLoS ONE, 2014).

The Km is the substrate concentration at which the rate is half of its maximum.

In assay [1] the test system is T1, purified chitinase from black soybean seeds (acidic chitinase, 20.1 kDa).
T1 construct: native purification from seeds; monomer; smaller than known soybean seed class III (28 kDa) and class I (32 kDa) chitinases; trace basic isoform co-purified
The assay is described as follows: fluorimetric release of 4-methylumbelliferone, Lineweaver-Burk. Type of assay: biochemical, Glycine max. As to conditions: pH 5.0, 40 °C, 0.05 M sodium acetate, 30 min. An excerpt: fluorimetric release of 4-methylumbelliferone, Lineweaver-Burk on purified chitinase from black soybean seeds (acidic chitinase, 20.1 kDa)

For assay [2] the test system is unchanged. Put plainly: p-nitrophenol release at […] nm, Lineweaver-Burk. In kind it is biochemical, Glycine max. As to conditions: pH 4.0, 37 °C, 0.05 M acetate, 30 min.

As for `CC(=O)N[C@H]1[C@H](Oc2ccc3c(C)cc(=O)oc3c2)O[C@H](CO)[C@@H](O[C@@H]2O[C@H](CO)[C@@H](O[C@@H]3O[C@H](CO)[C@@H](O)[C@H](O)[C@H]3NC(C)=O)[C@H](O)[C@H]2NC(C)=O)[C@@H]1O` [4-MU-GlcNAc3], the Michaelis-Menten constant (Km) in assay [1] turned out to be 17.4 µM. `CC(=O)N[C@H]1[C@H](Oc2ccc([N+](=O)[O-])cc2)O[C@H](CO)[C@@H](O[C@@H]2O[C@H](CO)[C@@H](O[C@@H]3O[C@H](CO)[C@@H](O[C@@H]4O[C@H](CO)[C@@H](O)[C@H](O)[C@H]4NC(C)=O)[C@H](O)[C@H]3NC(C)=O)[C@H](O)[C@H]2NC(C)=O)[C@@H]1O` [pNp-GlcNAc4]: the Km in assay [2] worked out at 245 µM.
